# Assay: Comparative accelerated storage study of ASA at 45° C. for 3 weeks (HPLC)
# Format: physicochemical
# Details: in distilled water, 143 mg ASA in 8 oz
# Procedure: Accelerated storage studies were conducted to examine the stability of ASA in distilled water, ASA in acidified (1% citric acid) distilled water, and of a molecular inclusion complex of ASA-βCD (in distilled water). Duplicate samples of each treatment were made containing 143 mg of ASA in 8 oz of distilled water. For the treatment containing the ASA-βCD complex, a 2:1 ratio of βCD to ASA was used as described in part I of the prototype formulation procedure outlined above. The treatments were stored at 45° C. for 3 weeks to determine the rate of hydrolysis of ASA to its breakdown product salicylic acid. Analysis of degradation products was performed using an Agilent Technologies 1200 series HPLC with a PDA (photodiode array) detector, incorporating a Phenominex C18-2 column (25 cm×0.39 cm i.d., 5 μm particle size). Solvent system A) H2O, Acetonitrile, Phosphoric Acid (95.45:4.5:0.05), and B) H2O, Acetonitrile, Phosphoric Acid (49.95:50:0.05). Solvent B ramped from 10%-80% over 20 minutes. Stability was verified using peak area, which was used to determine the overall percentage of breakdown of ASA to salicylic acid. […] The sensory profile of the βCD-ASA solution was evaluated.
smiles,measurement,value
"CC(=O)Oc1ccccc1C(=O)O [ASA, acetylsalicylic acid]",breakdown of ASA to salicylic acid,nearly quantitative breakdown

# Reference: patent publication US9789191B2, “Aqueous drug delivery system” (SOLIXA TECHNOLOGIES, INC., priority 2010, dated 2017)
